Here are results for two molecules from patent US12685773B2 (priority 2020, dated 2026).

In one data set the test system is relapsed/refractory HL. As to conditions: cited from earlier work.
[1] abbreviates: 9 patients evaluated at 6 weeks after infusion.
Where [2] appears, read: 3 patients did not have data at 3 months.
The mark [3] stands for this setting: AE of special interest, classical HL patients.
Setting [4] is: Grade 3 or higher AE, classical HL patients.
Setting [5] is: not resolved by Day 28, classical HL patients.

On to cyclophosphamide and fludarabine, for which, in the data set on relapsed/refractory HL (setting [1]), the CR was 66.6%, the ORR is 66.6% and the PD was 33.3%. Besides, the “disease progression: patients” value with relapsed/refractory HL (out of 9 patients evaluated at 6 weeks after infusion) was 3. Moreover, the “CR: patients” value with relapsed/refractory HL (out of 9 patients evaluated at 6 weeks after infusion, cyclophosphamide 500 mg/m^2 and fludarabine 30 mg/m^2 daily for 3 days) is given as 6.
As to `Cn1c(CCCC(=O)O)nc2cc(N(CCCl)CCCl)ccc21` [Benda], under setting [2], the “Prolonged Grade 3/4 Anemia (at month 3): n” value is reported as 0, the “Prolonged Grade 3/4 Neutropenia (at month 3): n” value is 0 and the “Prolonged Grade 3/4 Thrombocytopenia (at month 3): n” value is recorded as 0. For the same molecule, under setting [3], the “Cytokine Release Syndrome (all Grade 1): %” value was “(13) %” and the “Cytokine Release Syndrome (all Grade 1): n” value is 1. For the same molecule, under setting [4], the “Anemia: n” value is reported as 0, the “Dyspnea: n” value came to 0, the “Headache: n” value was 0 and the “Hypoalbuminemia: n” value worked out at 0. Also, under setting [4], the “Hyponatremia: n” value was 0, the “Leukopenia: %” value is “(38) %”, the “Leukopenia: n” value was 3 and the “Lung Infection: n” value turned out to be 0. In addition, under setting [4], the “Lymphopenia: %” value is on record as “(100) %”, the “Lymphopenia: n” value is reported as 8, the “Neutropenia: %” value is given as “(25) %” and the “Neutropenia: n” value worked out at 2. Besides, under setting [4], the “Pharyngitis: n” value came to 0, the “Rash: n” value is 0, the “Thrombocytopenia: %” value is recorded as “(13) %” and the “Thrombocytopenia: n” value came out at 1. For the same molecule, under “classical HL patients”, the “Grade 3/4 Anemia at day 28: n” value was determined as 0 and the “Rash (Any Grade): %” value was “(25) %”. Besides, the “Rash (Any Grade): n” value (classical HL patients, maculopapular skin rash) was 2. Also, under setting [5], the “Grade 3/4 Neutropenia at day 28: n” value is 0 and the “Grade 3/4 Thrombocytopenia at day 28: n” value was 0.
